The source of these data is patent US20240174690A1, “ANNULATED 2-AMINO-3-CYANO THIOPHENES AND DERIVATIVES FOR THE TREATMENT OF CANCER” (BOEHRINGER INGELHEIM INTERNATIONAL GMBH, priority 2021, published 2024).

Structures are written as SMILES.

This data set deals with Caco-2 cell monolayers. Nature of the data set: Caco-2 assay (permeability PappAB, PappBA, efflux ratio). The format is in vitro ADME. Particulars: 10 μM test compound, pH 7.4. The method in brief:
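Confluent Caco-2 monolayers on filter supports, 0.25% BSA in both donor and receiver buffer; transport measured a-b and b-a. After 25-30 min preincubation at 37 °C, samples at 0, 30, 60, 90 min quantified by HPLC/MS/MS. Papp from receiver amount per time, filter area and initial donor concentration; efflux ratio = PappBA/PappAB.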
In general terms: Caco-2 cells form a polarised layer with tight junctions and transporters.

`C[C@H](Oc1cc(-n2ccc(C(=O)N[C@H]3CCOC3)n2)nc(-c2noc3c2CCC[C@@]32CCCc3sc(N)c(C#N)c32)n1)[C@@H]1CCCN1C` [II-193]: the “Caco PappAB” value (apical to basolateral) was 3.7 ×10⁻⁶ cm/s. For the same compound, the “Caco ER” value (efflux ratio PappBA/PappAB) came out at 8.1.
